The record followed here is patent US20110251238A1, “PPAR AGONIST COMPOSITIONS AND METHODS OF USE” (BIOPHARMED, priority 2008, published 2011).

≈ marks a conversion by molar mass, not a printed value. Counter-ions that a name gives are not always drawn. Like-named read-outs stand apart in the source and are kept apart here. Bounds are passed on as bounds.

The subject of data set [1] is KB3 (epitheloid lung cancer) cell lines. Briefly: Cell growth inhibition (cytotoxicity), MTS assay, KB3 cell line. The class given is cell-based. As to conditions: for cytotoxic activity in words: structure-cytotoxicity discussion. As to the method:
Cell growth inhibition was determined by the MTS assay; the number of viable cells were proportional to the extent of formazan production in the presence or absence of drugs. […]
A general note: Tetrazolium assays rely on reduction of a dye to a coloured formazan, in cell work by metabolically active cells.

Data set [2] concerns bloodstream forms of T. brucei and T. congolense. Briefly: Trypanocidal activity in vitro, Alamar Blue assay. It is filed as cell-based, Trypanosoma brucei and T. congolense. From the text:
Trypanosoma brucei and T. congolense are the causative agents of sleeping sickness in humans and nagana in cattle, respectively. The protozoan parasites live extracellularlyin blood and tissue fluids of mammals and are transmitted by the bite of infected tsetse flies (Glossina spp.). Here the trypanocidal activity against bloodstream forms of T. brucei and T. congolense of bis-8-hydroxy quinoline N-substituted benzylamines derivatives was investigated in vitro, according to methods described in. Steverding et al. (2006) Kinetoplastid Biology and Disease, 5(3): 1-5; Hongmance et al., (2007) Antimicrob. Agents Chemother. 51:1105-1106; and Zhao et al., (2005) Bio-org. Med. Chem.; 13: 3921-3926. Cells were seeded into 96-well tissue culture plates in 200 μl medium containing various concentrations of analogues dissolved in H2O. The controls contained the respective solvent alone. […] After 24 h (trypanosomes) or 43 h (HL-60) incubation, 20 μl of the colorimetric viability indicator Alamar Blue® was added to each well. The cells were incubated for a further 24 h (trypanosomes) or 5 h (HL-60) so that the total incubation time was 48 h. Then, the plates were read on a Dynatech MR5000ELISA reader (Denkendorf, Germany),using a test wavelength of 550 nm and a reference wave length of 630 nm. Each test was set up in duplicate and repeated three times. For comparison, the general cytotoxicity of the compounds was assayed with human myeloid leukaemia HL-60 cells. The anti-trypanosomal activities and the general cytotoxicities of the new analogues were evaluated using the Alamar Blue® assay.

Setting [3] is: Table 3A, MTS assay, triplicate, read-out: KB3 IC50.
The mark [4] stands for this setting: KB3, Table 3B, MTS assay, triplicate, read-out: KB3 IC50.
Setting [5] is: KB3, Table 3A, MTS assay, triplicate, read-out: KB3 IC50.
[6] abbreviates: 50% growth inhibition, 48 h total incubation, read-out: GI50.
Setting [7] is: lowest concentration at which all cells were killed, 48 h total incubation, read-out: MIC.

Usually IC50 stands for the midpoint of a concentration-inhibition curve. For the molecule “5,5′-(2-(pyridin-2-yl)ethylazanediyl)bis(methylene)diquinolin-8-ol) [BPM19,193]”, the IC50 in data set [1] (setting [3]) was more than 10 µM.

As for “5,5′-(2-(pyrrolidin-1-yl)ethylazanediyl)bis(methylene)diquinolin-8-ol) [BPM19,214]”, the IC50 in data set [1] (setting [3]) is 1 µM.

As a reminder, the CC50 is the concentration that lowers cell viability or growth by half. A low value points to harm at low concentration. Take `Cc1ccc(C(=O)NCc2ccc(O)c3ncccc23)cc1` [BPM18,203, N-((8-hydroxyquinolin-5-yl)methyl)-4-methylbenzamide]: the half-inhibitory concentration (IC50) in data set [1] (setting [4]) turned out to be 1 µM. Also, in data set [1] (KB3 cell line), the CC50 amounted to 1 µM and the “cytotoxic activity in words” value was “inactive or only weakly active”.

Take `Oc1ccc(CNCc2ccccc2)c2cccnc12` [BPM18,726, 5-((benzylamino)methyl)quinolin-8-ol dihydrochloride]: in data set [1] (setting [4]), the IC50 is more than 1 µM.

Turning to `Oc1ccc(CNCc2cccc(C(F)(F)F)c2)c2cccnc12` [BPM19,114, 5-((3-(trifluoromethyl)benzylamino)methyl)quinolin-8-ol], in data set [1] (setting [4]), the IC50 amounted to 0.2 µM. Also, the “cytotoxic activity in words” value in data set [1] (KB3 cell line) is “significant cytotoxic activity”.

A word on the GI50: it is the concentration giving 50% growth inhibition. Broadly, the MIC is the lowest concentration found to suppress growth. In data set [2] (48 h), `Cc1ccc(CNCc2ccc(O)c3ncccc23)cc1` [BPM19,167, 5-((4-methylbenzylamino)methyl)quinolin-8-ol dihydrochloride] registered a GI50 of 14.8 ± 2.59 µM and an MIC of 100 µM.

In the case of `Oc1ccc(CNCc2ccc(C(F)(F)F)cc2)c2cccnc12` [BPM19,191, 5-((4-(trifluoromethyl)benzylamino)methyl)quinolin-8-ol], in data set [1] (setting [4]), the IC50 was found to be 10 µM.

For the molecule `Oc1ccc(CN(Cc2ccc(O)c3ncccc23)CC2CCCO2)c2cccnc12` (stereo not shown) [BPM19,197, 5,5′-((tetrahydrofuran-2-yl)methylazanediyl)bis(methylene)diquinolin-8-ol], the concentration for half-maximal inhibition (IC50) in data set [1] (setting [5]) came out at 10 µM. Also, in data set [2] (setting [6]), the GI50 is 2.99 ± 0.05 µM. In addition, the MIC in data set [2] (setting [7]) is 10 µM (≈ 4.15 µg/mL).

On to `Oc1ccc(CN(Cc2ccc(OC(F)(F)F)cc2)Cc2ccc(O)c3ncccc23)c2cccnc12` [BPM19,205, 5,5′-(4-(trifluoromethoxy)benzylazanediyl)bis(methylene)diquinolin-8-ol], for which, in data set [1] (setting [5]), the 50% inhibitory concentration (IC50) was 0.1 to 1 µM. Also, the GI50 in data set [2] (setting [6]) is 0.32 ± 0.02 µM. Besides, the minimum inhibitory concentration (MIC) in data set [2] (setting [7]) came to 1 µM (≈ 0.505 µg/mL).

With `Cn1cccc1CN(Cc1ccc(O)c2ncccc12)Cc1ccc(O)c2ncccc12` [BPM19,216, 5,5′-((1-methyl-1H-pyrrol-2-yl)methylazanediyl)bis(methylene)diquinolin-8-ol], the GI50 in data set [2] (setting [6]) amounted to 0.32 ± 0.01 µM. Besides, the MIC in data set [2] (setting [7]) turned out to be 1 µM (≈ 0.425 µg/mL).

Turning to `Oc1ccc(CN(Cc2ccccc2)Cc2ccccc2)c2cccnc12` [BPM19,230, 5-((dibenzylamino)methyl)quinolin-8-ol], the IC50 in data set [1] (setting [4]) stood at 1 µM.

Regarding `Oc1ccc(N(Cc2cccc3ccccc23)c2ccc(O)c3ncccc23)c2cccnc12` [BPM19,702, 5,5′-(naphthalen-1-ylmethylazanediyl)diquinolin-8-ol], the GI50 in data set [2] (setting [6]) amounted to 0.29 µM. In data set [2] (setting [7]), the MIC was found to be 1 µM (≈ 0.444 µg/mL).

With `Cc1ccc2c(CN(Cc3ccc(C(F)(F)F)cc3)Cc3ccc(O)c4nc(C)ccc34)ccc(O)c2n1` [BPM19,876, 5,5′-(4-trifluoromethylbenzylazanediyl)bis(methylene)bis(2-methylquinolin-8-ol)], in data set [2] (setting [6]), the GI50 amounted to 3.71 ± 0.24 µM. For the same molecule, in data set [2] (setting [7]), the MIC stood at 100 µM (≈ 51.8 µg/mL).

On to `CC(=O)O[C@@]12CO[C@@H]1C[C@H](O)[C@@]1(C)C(=O)[C@H](O)C3=C(C)[C@@H](OC(=O)[C@H](O)[C@@H](NC(=O)OC(C)(C)C)c4ccccc4)C[C@@](O)([C@@H](OC(=O)c4ccccc4)[C@H]21)C3(C)C` [docetaxel, reference compound], for which the IC50 in data set [1] (compared with KB3 values, read-out: IC50 value of reference drug) was 0.0001 µM.
